Measured values reported in PMC4624405 (Chemistry & biology, 2015).
Where two headings read alike, the source gives them in different places.

Key:
[1] = target: T1, sterol C24-methyltransferase (TbSMT) (Trypanosoma brucei, UniProt Q4FKJ2); assay: recombinant enzyme activity assay, Lineweaver-Burk inhibition; assay type: biochemical
T1 sequence (Q4FKJ2 1-359): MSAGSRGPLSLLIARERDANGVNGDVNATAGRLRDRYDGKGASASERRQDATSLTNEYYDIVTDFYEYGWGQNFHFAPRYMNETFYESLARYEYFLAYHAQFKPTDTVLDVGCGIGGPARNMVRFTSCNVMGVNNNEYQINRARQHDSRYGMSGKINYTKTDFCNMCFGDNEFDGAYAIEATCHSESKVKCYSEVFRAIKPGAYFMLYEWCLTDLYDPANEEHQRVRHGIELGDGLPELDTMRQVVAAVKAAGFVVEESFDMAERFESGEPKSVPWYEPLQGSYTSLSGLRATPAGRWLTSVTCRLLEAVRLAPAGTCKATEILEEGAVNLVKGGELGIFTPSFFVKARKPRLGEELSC

[2] = target: T1, sterol C24-methyltransferase (TbSMT); assay type: biochemical

For `CC(=CCC[C@@H](C)[C@H]1CC[C@@]2(C)C3=C(CC[C@]12C)[C@@]1(C)CC[C@H](O)C(C)(C)[C@@H]1CC3)CF` [26FL, 26-fluorolanosterol], the Ki [1] was 85 µM.
With `CC(=CCC[C@@H](C)[C@H]1CC[C@H]2C3=CC=C4C[C@@H](O)CC[C@]4(C)[C@H]3CC[C@]12C)CF` [26FCT, 26-fluorocholesta-5,7,24-trienol] the Ki [2] was 75 µM.
